Measurements: US20230091225A1, “Bifunctional chimeric heterocyclic compounds for targeted degradation of androgen receptors and use thereof” (HINOVA PHARMACEUTICALS INC., priority 2019, published 2023)
Where two headings read alike, the source gives them in different places.

How the values were obtained:
androgen receptor (AR) = target: T1, androgen receptor (AR) (Homo sapiens, UniProt P10275); assay: Degradation of androgen receptor (AR) protein in VCaP cells by ELISA; assay type: cell-based; details: for inhibition at 0.1 µM: 16 h, read-out: % degradation
T1 sequence (P10275 1-920): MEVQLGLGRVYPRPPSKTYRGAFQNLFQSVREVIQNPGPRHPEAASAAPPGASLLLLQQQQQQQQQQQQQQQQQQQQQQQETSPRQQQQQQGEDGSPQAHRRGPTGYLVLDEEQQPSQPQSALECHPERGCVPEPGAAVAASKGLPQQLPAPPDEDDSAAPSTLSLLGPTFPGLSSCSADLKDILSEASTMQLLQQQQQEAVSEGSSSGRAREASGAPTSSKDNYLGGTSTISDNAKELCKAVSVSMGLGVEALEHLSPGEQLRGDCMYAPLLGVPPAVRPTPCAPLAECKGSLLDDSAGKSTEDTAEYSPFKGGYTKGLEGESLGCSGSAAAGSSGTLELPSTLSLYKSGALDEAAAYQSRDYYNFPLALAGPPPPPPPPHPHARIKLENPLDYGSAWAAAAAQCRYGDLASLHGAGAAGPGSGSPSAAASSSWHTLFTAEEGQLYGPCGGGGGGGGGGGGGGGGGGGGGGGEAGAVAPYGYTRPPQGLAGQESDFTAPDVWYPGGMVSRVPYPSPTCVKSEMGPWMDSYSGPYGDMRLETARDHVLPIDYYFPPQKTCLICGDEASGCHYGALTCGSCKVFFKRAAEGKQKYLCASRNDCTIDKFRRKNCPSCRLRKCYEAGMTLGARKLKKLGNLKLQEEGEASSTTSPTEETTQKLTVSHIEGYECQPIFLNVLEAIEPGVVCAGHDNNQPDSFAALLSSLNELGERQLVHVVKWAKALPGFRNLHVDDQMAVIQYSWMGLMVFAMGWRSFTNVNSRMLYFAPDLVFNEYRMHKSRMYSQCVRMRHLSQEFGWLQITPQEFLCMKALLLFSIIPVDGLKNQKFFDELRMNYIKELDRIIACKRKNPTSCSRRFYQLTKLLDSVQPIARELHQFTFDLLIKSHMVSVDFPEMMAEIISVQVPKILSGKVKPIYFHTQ

LNCaP/AR cells = assay: Inhibition of proliferation of LNCaP/AR prostate cancer cells (CCK-8); assay type: cell-based
[1] = percentage of degraded AR at 100 nM, VCaP cells, ELISA
[2] = 144 h, proliferation of LNCap/AR cells, 6 days, CCK-8, read-out: IC50
[3] = proliferation of LNCap/AR cells, 6 days, CCK-8, read-out: IC50

| Compound | inhibition at 0.1 µM (androgen receptor (AR); [1]) [%] | IC50 (LNCaP/AR cells; [2]) [nM] | also measured |
| --- | --- | --- | --- |
| [2H]C([2H])([2H])N(C(=O)c1ccc(C#CCCCCCOCC(=O)N[C@H](C(=O)N2C[C@H](O)C[C@H]2C(=O)N[C@@H](C)c2ccc(-c3scnc3C)cc2)C(C)(C)C)cc1)[C@H]1C(C)(C)[C@H](Oc2ccc(C#N)c(Cl)c2)C1(C)C [Compound 24] | 50 to 79 | < 100 | – |
| CC(=O)O[C@@H]1C[C@@H](C(=O)N[C@@H](C)c2ccc(-c3scnc3C)cc2)N(C(=O)[C@@H](NC(=O)Cn2cc(C#Cc3ccc4c(c3)CN([C@H]3C(C)(C)[C@H](Oc5ccc(C#N)c(Cl)c5)C3(C)C)C4=O)cn2)C(C)(C)C)C1 [Compound 10, (3R,5S)-1-((S)-2-(2-(4-((2-((1r,3r)-3-(3-chloro-4-cyanophenoxy)-2,2,4,4-tetramethylcyclobutyl)-1-oxoisoindolin-5-ylethynyl)-1H-pyrazol-1-yl)acetylamino)-3,3-dimethylbutyryl)-5-((((S)-1-(4-(4-methylthiazol-5-yl)phenyl)ethylcarbamoyl)pyrrolidin-3-yl acetate] | – | – | % degradation (androgen receptor (AR)): C (key: A: >80%; B: 79%-50%; C: 49%-25%; D: <25%); IC50 (LNCaP/AR cells; [3]): 100 to 500 nM |
| [2H]C([2H])([2H])N(C(=O)c1ccc(C#CCCCCOCC(=O)N[C@H](C(=O)N2C[C@H](O)C[C@H]2C(=O)N[C@@H](C)c2ccc(-c3scnc3C)cc2)C(C)(C)C)cc1)[C@H]1C(C)(C)[C@H](Oc2ccc(C#N)c(Cl)c2)C1(C)C [Compound 23] | 25 to 49 | < 100 | – |
| CC(=O)O[C@@H]1C[C@@H](C(=O)N[C@@H](CO)c2ccc(-c3scnc3C)cc2)N(C(=O)[C@@H](NC(=O)COCCCCC#Cc2ccc3c(c2)CN([C@H]2C(C)(C)[C@H](Oc4ccc(C#N)c(Cl)c4)C2(C)C)C3=O)C(C)(C)C)C1 [Compound 49, (3R,5S)-1-((S)-2-(2-((6-(2-(((1r,3r)-3-(3-chloro-4-cyanophenoxy))-2,2,4,4-tetramethylcyclobutyl)-1-oxoisoindolin-5-yl)hex-5-yn-1-yl)oxy)acetamido)-3,3-dimethylbutyryl)-5-(((R)-2-hydroxy-1-(4-(4-methylthiazol-5-yl)phenyl)ethyl)carbamoyl)pyrrolidin-3-yl acetate] | 25 to 49 | – | IC50 (LNCaP/AR cells; LNCaP/AR, 144 h): < 100 nM |
| CC(=O)O[C@@H]1CC(C(=O)NC2(c3ccc(-c4scnc4C)cc3)CC2)N(C(=O)[C@@H](NC(=O)COCCCCCNc2ccc(C(=O)N[C@H]3C(C)(C)[C@H](Oc4ccc(C#N)c(Cl)c4)C3(C)C)cc2)C(C)(C)C)C1 (stereo partly drawn) [Compound 46, (3R,5S)-1-((S)-2-(2-((5-((4-(((1r,3r)-3-(3-chloro-4-cyanophenoxy)-2,2,4,4-tetramethylcyclobutyl)carbamoyl)phenyl)amino)pentyl)oxy)acetamido)-3,3-dimethylbutanol)-5-((1-(4-methylthiazol-5-yl)phenyl)cyclopropyl)carbamoyl) pyrrolidin-3-yl acetate] | – | – | inhibition at 0.1 µM (androgen receptor (AR); VCaP): 25 to 49%; IC50 (LNCaP/AR cells; LNCaP/AR, 144 h): < 100 nM |
| Cc1ncsc1-c1ccc([C@H](C)NC(=O)[C@@H]2C[C@@H](O)CN2C(=O)[C@@H](NC(=O)COCCC#Cc2ccc3c(c2)CN([C@H]2C(C)(C)[C@H](Oc4ccc(C#N)c(Cl)c4)C2(C)C)C3=O)C(C)(C)C)cc1 [Compound 27] | 50 to 79 | < 100 | – |
| [2H]C([2H])([2H])N(C(=O)c1ccc(C#CCCCNC(=O)C2(C(=O)N[C@H](C(=O)N3C[C@H](O)C[C@H]3C(=O)N[C@@H](C)c3ccc(-c4scnc4C)cc3)C(C)(C)C)CC2)cc1)[C@H]1C(C)(C)[C@H](Oc2ccc(C#N)c(Cl)c2)C1(C)C [Compound 28] | 25 to 49 | < 100 | – |
| [2H]C([2H])([2H])N(C(=O)c1ccc(N2CCC(CN3CCN(c4cc5c(cc4F)CN(C4CCC(=O)NC4=O)C5=O)CC3)CC2)nc1)[C@H]1C(C)(C)[C@H](Oc2ccc(C#N)c(Cl)c2)C1(C)C (some centres unmarked) [Compound 215, N-((1r,3r)-3-(3-chloro-4-cyanophenoxy)-2,2,4,4-tetramethylcyclobutyl)-6-(4-((4-(2-(2,6-dioxopiperidin-3-yl)-6-fluoro-3-oxoisoindolin-5-yl)piperazin-1-yl)methyl)piperidin-1-yl)-N-(methyl-d3)nicotinamide] | < 25 | > 1000 | – |
| [2H]C([2H])([2H])N(C(=O)c1ccc(N2CCC(CN3CCN(c4cc5c(cc4F)CN(C4CCC(=O)NC4=O)C5=O)CC3)CC2)nc1)[C@H]1CC[C@H](Oc2ccc(C#N)c(Cl)c2)CC1 (some centres unmarked) [Compound 306, N-((1r,4r)-4-(3-chloro-4-cyanophenoxy)cyclohexyl)-6-(4-((4-(2-(2,6-dioxopiperidin-3-yl)-6-fluoro-3-oxoisoindol-5-yl)piperazin-1-yl)methyl)piperidin-1-yl)-N-deuteromethylnicotinamide] | – | > 1000 | – |
| CC1(C)C(Oc2ccc(C#N)c(Cl)c2)C(C)(C)C1N1Cc2nc(N3CCC(CN4CCN(c5ccc6c(c5)C(=O)N([C@@H]5CCC(=O)NC5=O)C6=O)CC4)CC3)ccc2C1=O (some centres unmarked) [Compound 202, 2-chloro-4-((1r,3r)-3-(2-(4-((4-(2,6-dioxopiperidin-3-yl-1,3-dioxoisoindolin-5-yl)piperazin-1-yl)methyl)piperidin-1-yl)-5-oxo-5,7-dihydro-6H-pyrrolo[3,4-b]pyridin-6-yl)-2,2,4,4-tetramethylcyclobutoxy)benzonitrile] | – | – | IC50 (LNCaP/AR cells; [3]): 100 to 500 nM |
| (2R,4R)-1-((S)-2-(2-((6-(4-(((1r,3r)-3-(3-chloro-4-cyanophenoxy)-2,2,4,4-tetramethylcyclobutyl)(methoxy)benzamido)hex-5-yn-1-)oxy)acetamido)-3,3-dimethylbutyryl)-4-hydroxy-N-((S)-1-(4-(4-methylthiazol-5-)phenyl)ethyl) tetrahydropyrrole-2-amide [Compound 435] | – | – | IC50 (LNCaP/AR cells; [3]): 500 to 1000 nM |
| (2R,4R)-1-((S)-2-(2-((5-((4-((1r,3r)-3-(4-(4H-1,2,4-triazol-1-yl)phenoxy)-2,2,4,4-tetramethylcyclobutyl)carbamoyl)phenyl)amino)pentyl)oxy)acetamide)-3,3-dimethylbutyryl)-4-hydroxy-N-((S)-1-(4-(4-methylthiazol-5-yl)phenyl)ethyl) pyrrolidine-2-carboxamide [Compound 405] | – | – | IC50 (LNCaP/AR cells; [3]): > 1000 nM |
| CC(=O)O[C@@H]1C[C@@H](C(=O)N[C@@H](C)c2ccc(-c3scnc3C)cc2)N(C(=O)[C@@H](NC(=O)COCCCCCNc2ccc3c(c2)CN([C@H]2C(C)(C)[C@H](Oc4ccc(C#N)c(Cl)c4)C2(C)C)C3=O)C(C)(C)C)C1 [Compound 412] | – | < 100 | – |
| CC1(C)[C@H](Oc2ccc(C#N)c(Cl)c2)C(C)(C)[C@H]1N1Cc2cc(C#Cc3cnn(C4CN(c5cc6c(cc5F)C(=O)N(C5CCC(=O)NC5=O)C6=O)C4)c3)ccc2C1=O (some centres unmarked) [Compound 45] | – | > 1000 | – |
| CC1(C)[C@H](Oc2ccc(C#N)c(Cl)c2)C(C)(C)[C@H]1N1Cc2cc(C#CC3CCN(C4CN(c5ccc6c(c5)C(=O)N(C5CCC(=O)NC5=O)C6=O)C4)CC3)ccc2C1=O (some centres unmarked) [Compound 53, 2-chloro-4-((1r,3r)-3-(5-((1-(I-(2-(2,6-dioxopiperidin-3-yl)-1,3-dioxoisoindolin-5-yl)azelaic acid-3-yl)piperidin-4-yl)ethynyl)-1-oxoisoindolin-2-yl)-2,2,4,4-tetramethylcyclobutoxy)benzonitrile] | – | 100 to 500 | – |
